4 compounds from patent EP0241291B1, “Aryl-substituted naphthyridine and pyridopyrazine derivatives” (SCHERING CORPORATION, priority 1986, dated 1987) can be followed below.

The structures appear in SMILES notation.

The subject of assay [1] is anaphylactic bronchospasm in sensitized guinea pigs. The experiment in a line: Inhibition of anaphylactic bronchospasm in sensitized guinea pigs with antigen-induced bronchoconstriction. It is filed as in vivo, male Hartley guinea pigs. As to conditions: Cavia porcellus, po; for ED50: 2 hours before challenge with ovalbumin, sensitized guinea pigs, read-out: ED50 (p.o.)-in anaphylactic bronchospasm test. The protocol:
The compounds of this invention may be employed as anti-allergy agents in the treatment of, for example, asthma, allergic or seasonal rhinitis, and/or chronic bronchitis. The anti-allergy method of this invention is identified by tests which measure a compound's inhibition of anaphylactic bronchospasm in sensitized guinea pigs having antigen induced broncho-constriction.
In one such test procedure, male Hartley guinea pigs (250-300 g) are sensitized with 5 mg ovalbumin injected i.p. and 5 mg injected s.c. in 1 ml saline on day 1 and 5 mg ovalbumin injected i.p. on day 4. The sensitized animals are used 3-4 weeks later at which time they weigh 450-500 g.
The sensitized guinea pigs are fasted overnight and the following morning are anesthetized with 0.9 ml/kg i.p. of dialurethane (0.1 g/ml diallybarbituric acid, 0.4 g/ml ethylurea and 0.4 g/ml urethane). The trachea are cannulated and the animals are ventilated by a Harvard® rodent respirator at 50 strokes/minute with a stroke volume of 5 ml. A side arm to the tracheal cannula is connected to a pressure transducer (Harvard) to obtain a continuous measure of intratracheal pressure which is recorded on a polygraph (Harvard). The jugular vein is cannulated for the i.v. administration of substances. The animals are challenged with antigen (0.5% ovalbumin) as an aerosol generated from a DeVilbiss® Model 65 ultrasonic nebulizer and delivered through the tracheal cannula for 30 seconds. Bronchoconstriction is measured as the peak increase in intratracheal pressure occurring within 5 minutes after antigen challenge.
The sensitized guinea pigs are injected i.v. with 1 mg/kg propranolol, 5 mg/kg indomethacin and 2 mg/kg mepyramine given together in a volume of 1 ml/kg. Fifteen minutes later the animals are challenged with nebulized ovalbumin. Test compounds are administered orally 2 hours before challenge with ovalbumin. Suppression of anaphylactic bronchospasm is expressed as a percent inhibition of the peak increase in intratracheal pressure by comparison to a vehicle-treated control group.

Assay [2] concerns Reversed Passive Arthus Response. The experiment in a line: Reversed Passive Arthus Response (RPAR), paw volume. It is filed as in vivo, Male Lewis inbred albino rats. As to conditions: 25 mg/kg p.o. once daily for 3 days, rats; for Percent Inhibition vs. Control at 2 hrs.: paw volume 2 hours post-challenge; for Percent Inhibition vs. Control at 4 hrs.: paw volume 4 hours post-challenge. The source says: The compounds of this invention are also useful for the treatment of inflammation. Thus, they are useful in the treatment of arthritis, bursitis, tendonitis, gout and other physical conditions characterized by inflammation.
Reversed Passive Arthus Response (RPAR) Animals, Materials and Methods
Male Lewis inbred albino rats weighing 180-200 grams obtained from Charles River Breeding Laboratories are used in these experiments. The rats are housed 3 animals/cage and food and water are allowed ad libitum. The animals are numbered 1-3 in each cage and color marked for identification purposes.
All reagents and drugs are prepared just prior to the study. Crystallized and lyophilized bovine serum albumin (BSA), available from Sigma Chemical Company, is solubilized without shaking in cold, sterile, pyrogenfree saline (10 mg/ml). Lyophilized anti-bovine serum albumin (IgG fraction), obtained from Cappel Laboratories, is suspended in sterile distilled water and diluted with cold, pyrogen-free saline (PFS) just prior to use. The final concentration of anti-bovine serum albumin is 0.5. mg/ml of PFS. Both BSA and anti-BSA solutions are iced during use. Drugs are suspended or solubilized in an aqueous solution of methyl cellulose (MC) with an homogenizer just prior to administration.
Groups of animals (6/group) are dosed with drug in MC by gavage once daily for 3 days. The last dose is administered one hour prior to sensitization with BSA. Controls are given MC alone and a drug-standard is usually included in each assay for verification purposes. Drugs are prepared and diluted so as to provide a dose for a 200 gram animal which is equivalent to the mg/kg dose for each experiment. Thus each rat receives an oral dose in a volume of approximately 2.0 cc. One hour after the last dose the animals are lightly anesthetized with ether and "sensitized" by injection of 0.2 ml of PFS containing 1.0 mg of BSA into the penile vein. One hour later, the animals are "challenged" in the right rear paw with subplantar injections of […] PFS containing 0.1 mg of anti-BSA. Immediately after the subplantar injection, the right paw is dipped (up to the lateral maleolus) into the mercury well of a plethysmograph. The volume of mercury displaced is converted to weight and recorded. This value is considered to be the control reading for the animal. Paw volumes are subsequently recorded with a plethysmograph during the development of the inflammation at 2 and 4 hours post-challenge.
Results are expressed by the change in paw volume (Δ paw volume) from the control reading for each animal to that recorded 2 and 4 hours post-challenge. All drug treated groups are compared to the MC control for significant differences with an analysis of variance. Differences from control in drug-treated groups are expressed as percent change from control in Table II.

Assay [3] relates to reverse passive Arthus reaction in the pleural cavity of rats. Description: Reverse passive Arthus reaction in the pleural cavity. It is filed as in vivo. To be noted: Rattus norvegicus, po, method of Myers et al., read-out: ED₅₀ reverse passive Arthus reaction in the pleural cavity.
In another assay the test system is spleen weight. The experiment in a line: Splenic atrophy test, decrease in spleen weight. Type of assay: in vivo. To be noted: BDF₁ mice. The protocol:
The immunosuppressive activity of the compounds may also be shown by a decrease in spleen weight after dosing BDF₁ mice orally with the drug for seven (7) consecutive days. The mice are sacrificed on the eighth day. The percent decrease in spleen weight is measured for each dosage level. In this procedure (Compound A) provided a 30% spleen weight decrease at a dosage level of 100 mg/kg.

In assay [4] the test system is GRAFT VS. HOST REACTION (GVHR). Description: Graft vs. host reaction (GVHR), spleen weight. As to conditions: 10 mg/kg orally for 10 days; GVHR mice. Type of assay: in vivo, C57 B1/6XA/J(B6AF1) male mice. As to the method:
To induce a GVHR, C57 B1/6XA/J(B6AF1) male mice were injected intravenously with parental (C57B1/6J) spleen and lymph node cells. The compound 1,2,3,4-tetrahydro-7-phenyl-oxepino[2,3-c][1,8]-naphthyridin-6(7H)-one (Compound A) was then administered orally for 10 days beginning on the day prior to the cell transfer. On the day following the last treatment, the animals were sacrificed, and their spleens were excised and weighed. The enlargement of the spleen of the host is a result of a GVHR. To some extent it is the host's own cells which infiltrate and enlarge the spleen although they do this because of the presence of graft cells reacting against the host. The amount of spleen enlargement, splenonmegaly, is taken as a measure of the severity of the GVHR.
In carrying out the GVHR the animal in the experimental group is injected with parental cells, cells of the same species but of different genotyne, which cause a weight increase of the spleen. […] The effectiveness of Compound A adminstered to the mice in the experimental group is measured by comparing the spleen weight of the untreated and treated GVH animal with that of the syngeneic control. Compound A reduced spleen weight by 61% as compared to the untreated animals at a dose of 10 mg/kg.

As for `O=c1c2c(c3cccnc3n1-c1cccc(Cl)c1)CCCC2` [Compound 1, 5-(3-Chlorophenyl)-7,8,9,10-tetrahydro-benzo[c][1,8]-naphthyridin-6(5H)-one], the ED50 in assay [1] is 2 mg/kg. Besides, in assay [2], the “Percent Inhibition vs. Control at 2 hrs.” value came to 64% and the “Percent Inhibition vs. Control at 4 hrs.” value came out at 30%.
The like results for `O=c1c2c(c3cccnc3n1-c1ccccc1)CCCC2` [Compound 2, 7,8,9,10-Tetrahydro-5-phenyl-benzo[c][1,8]-naphthyridin-6-(5H)-one] were, in that order, 2 mg/kg, 75% and 29%.
For `O=c1c2c(c3cccnc3n1-c1cccc(Cl)c1)CCCCO2` [Compound 3, 7-(3-Chlorophenyl)-1,2,3,4-tetrahydro-oxepino[2,3-c][1,8]-naphthyridin-6(7H)-one], the ED50 in assay [1] was 5 mg/kg.
On to `O=c1c2c(c3cccnc3n1-c1ccccc1)CCCCO2` [Compound 4, 1,2,3,4-tetrahydro-7-phenyl-oxepino[2,3-c][1,8]-naphthyridin-6(7H)-one], for which the ED50 in assay [1] was 1 mg/kg; in assay [3], approximately 4.5 mg/kg. The ED30 is approximately 0.5 mg/kg in assay [1] (sensitized guinea pigs having antigen-induced bronchoconstriction, read-out: ED₃₀ inhibition of anaphylactic bronchospasm) and approximately 100 mg/kg in the assay on spleen weight (Mus musculus, oral, seven consecutive days, read-out: ED₃₀ in the splenic atrophy test). The same compound yielded a spleen weight decrease in the assay on spleen weight (100 mg/kg orally for seven consecutive days) of 30%. Moreover, in assay [2], the “Percent Inhibition vs. Control at 2 hrs.” value is 74%. Further, in assay [2], the “Percent Inhibition vs. Control at 4 hrs.” value is on record as 25%. Further, the “reduced spleen weight as compared to the untreated animals” value in assay [4] is recorded as 61%.
